Results taken from patent US20230278972A1, “SUBSTITUTED HALOALKYL SULFONANILIDE HERBICIDES” (FMC Corporation, priority 2020, published 2023).

How the values were obtained:
Assay type in all cases: in vivo
[1] = test system: blackgrass (Alopecurus myosuroides); assay: Test A1 postemergence, blackgrass; details: 0 to 100 scale (0 no effect, 100 complete control); for Plant response rating, Blackgrass: Postemergence
Excerpt: (§1) Seeds of plant species selected from, blackgrass (Alopecurus myosuroides), corn (Zea mays), Foxtail, Giant (giant foxtail, Setaria faberi), goosegrass (Eleusine indica), kochia (Bassia scoparia), Oat, Wild (wild oat, Avena fatua), Pigweed, Palmer (palmer amaranth, palmer pigweed, Amaranthus palmeri), ragweed (common ragweed, Ambrosia artemisiifolia), Ryegrass, Italian (Italian ryegrass, Lolium multiflorum), soybean (Glycine max), and wheat (Triticum aestivum) were planted into a blend of loam soil and sand and treated preemergence with a directed soil spray using test chemicals formulated in a non-phytotoxic solvent mixture which included a surfactant. At the same time, plants selected from these crop and weed species and also galium (catchweed bedstraw, Galium aparine) and horseweed (Erigeron canadensis) were planted in pots containing the same blend of loam soil and sand and treated with postemergence applications of test chemicals formulated in the same manner. Plants ranged in height from 2 to 10 cm and were in the one- to two-leaf stage for the postemergence treatment. […] A dash (-) response means no test result.

[2] = test system: Ryegrass, Italian (Italian ryegrass, Lolium multiflorum); assay: Test A1 preemergence, Ryegrass, Italian
Excerpt: as §1

[3] = test system: wheat (Triticum aestivum); assay: Test A1 postemergence, wheat; details: for Plant response rating, Wheat: Postemergence
Excerpt: as §1

[4] = test system: rice (Oryza sativa); assay: Test B1 flooded paddy test, rice; details: 250 g ai/ha, Flood, applied to paddy water, 2-leaf stage, visually evaluated after 10 to 14 days
Excerpt: (§2) A dash (-) response means no test result.

[5] = test system: ragweed (common ragweed, Ambrosia artemisiifolia); assay: Test A1 preemergence, ragweed
Excerpt: as §1

[6] = test system: soybean (Glycine max); assay: Test A1 postemergence, soybean; details: for Plant response rating, Soybean: Postemergence
Excerpt: as §1

[7] = test system: kochia (Bassia scoparia); assay: Test A1 preemergence, kochia
Excerpt: as §1

[8] = test system: Pigweed, Palmer (palmer amaranth, palmer pigweed, Amaranthus palmeri); assay: Test A1 preemergence, Pigweed, Palmer
Excerpt: as §1

[9] = test system: corn (Zea mays); assay: Test A1 preemergence, corn
Excerpt: as §1

[10] = test system: wheat (Triticum aestivum); assay: Test A1 preemergence, wheat
Excerpt: as §1

[11] = test system: soybean (Glycine max); assay: Test A1 preemergence, soybean
Excerpt: as §1

[12] = test system: galium (catchweed bedstraw, Galium aparine); assay: Test A1 postemergence, galium; details: for Plant response rating, Galium: Postemergence
Excerpt: as §1

[13] = test system: Foxtail, Giant (giant foxtail, Setaria faberi); assay: Test A1 postemergence, Foxtail, Giant; details: for Plant response rating, Foxtail, Giant: Postemergence
Excerpt: as §1

[14] = test system: goosegrass (Eleusine indica); assay: Test A1 postemergence, goosegrass; details: for Plant response rating, Goosegrass: Postemergence
Excerpt: as §1

[15] = test system: Oat, Wild (wild oat, Avena fatua); assay: Test A1 postemergence, Oat, Wild; details: for Plant response rating, Oat, Wild: Postemergence
Excerpt: as §1

[16] = test system: kochia (Bassia scoparia); assay: Test A1 postemergence, kochia; details: for Plant response rating, Kochia: Postemergence
Excerpt: as §1

[17] = test system: Oat, Wild (wild oat, Avena fatua); assay: Test A1 preemergence, Oat, Wild
Excerpt: as §1

[18] = test system: barnyardgrass (Echinochloa crus-galli); assay: Test B1 flooded paddy test, barnyardgrass; details: 250 g ai/ha, Flood, applied to paddy water, 2-leaf stage, visually evaluated after 10 to 14 days
Excerpt: as §2

[19] = test system: horseweed (Erigeron canadensis); assay: Test A1 postemergence, horseweed; details: for Plant response rating, Horseweed: Postemergence
Excerpt: as §1

[20] = test system: Foxtail, Giant (giant foxtail, Setaria faberi); assay: Test A1 preemergence, Foxtail, Giant
Excerpt: as §1

[21] = test system: corn (Zea mays); assay: Test A1 postemergence, corn; details: for Plant response rating, Corn: Postemergence
Excerpt: as §1

[22] = test system: Pigweed, Palmer (palmer amaranth, palmer pigweed, Amaranthus palmeri); assay: Test A1 postemergence, Pigweed, Palmer; details: for Plant response rating, Pigweed, Palmer: Postemergence
Excerpt: as §1

[23] = test system: ducksalad (Heteranthera limosa); assay: Test B1 flooded paddy test, ducksalad; details: 250 g ai/ha, Flood, applied to paddy water, 2-leaf stage, visually evaluated after 10 to 14 days
Excerpt: as §2

[24] = test system: goosegrass (Eleusine indica); assay: Test A1 preemergence, goosegrass
Excerpt: as §1

[25] = test system: ragweed (common ragweed, Ambrosia artemisiifolia); assay: Test A1 postemergence, ragweed; details: for Plant response rating, Ragweed: Postemergence
Excerpt: as §1

[26] = test system: Ryegrass, Italian (Italian ryegrass, Lolium multiflorum); assay: Test A1 postemergence, Ryegrass, Italian; details: for Plant response rating, Ryegrass, Italian: Postemergence
Excerpt: as §1

[27] = 31 g ai/ha, 0 to 100 scale (0 no effect, 100 complete control)
[28] = 125 g ai/ha, 0 to 100 scale, 0 no effect, 100 complete control
[29] = 31 g ai/ha, 0 to 100 scale (0 no effect, 100 complete control), 10 days
[30] = 31 g ai/ha, postemergence, 0 to 100 scale (0 no effect, 100 complete control)
[31] = 125 g ai/ha, 0 to 100 scale (0 no effect, 100 complete control), 10 days

## CCOC(=O)N(c1cc(C(=O)N2CCSCC2)c(C)c(C)c1C)S(=O)(=O)C(F)(F)F [Compound 286]
[1]; 31 g ai/ha, 10 days
  Plant response rating, Blackgrass: 0
[1]; 125 g ai/ha
  Plant response rating, Blackgrass: 40
[2]; [27]
  Plant response rating, Ryegrass, Italian: 0
[2]; [28]
  Plant response rating, Ryegrass, Italian: 0
[3]; [29]
  Plant response rating, Wheat: 0
[3]; 125 g ai/ha, 0 to 100 scale
  Plant response rating, Wheat: 20
[4]
  Plant response rating, Rice (0 to 100 scale, 0 is no effect, 100 is complete control): 0
[5]; [27]
  Plant response rating, Ragweed: 0
[5]; [28]
  Plant response rating, Ragweed: 10
[6]; [29]
  Plant response rating, Soybean: 50
[6]; 125 g ai/ha, 0 to 100 scale
  Plant response rating, Soybean: 60
[7]; [27]
  Plant response rating, Kochia: 0
[7]; [28]
  Plant response rating, Kochia: 80
[8]; [27]
  Plant response rating, Pigweed, Palmer: 50
[8]; [28]
  Plant response rating, Pigweed, Palmer: 70
[9]; [27]
  Plant response rating, Corn: 0
[9]; [28]
  Plant response rating, Corn: 0
[10]; [27]
  Plant response rating, Wheat: 0
[10]; [28]
  Plant response rating, Wheat: 30
[11]; [27]
  Plant response rating, Soybean: 0
[11]; [28]
  Plant response rating, Soybean: 40
[12]; [29]
  Plant response rating, Galium: 50
[12]; 125 g ai/ha, 0 to 100 scale
  Plant response rating, Galium: 80
[13]; [29]
  Plant response rating, Foxtail, Giant: 80
[13]; 125 g ai/ha, 0 to 100 scale
  Plant response rating, Foxtail, Giant: 80
[14]; [29]
  Plant response rating, Goosegrass: 0
[14]; 125 g ai/ha, 0 to 100 scale
  Plant response rating, Goosegrass: 40
[15]; [29]
  Plant response rating, Oat, Wild: 0
[15]; 125 g ai/ha, 0 to 100 scale
  Plant response rating, Oat, Wild: 0
[16]; [29]
  Plant response rating, Kochia: 20
[16]; 125 g ai/ha, 0 to 100 scale
  Plant response rating, Kochia: 50
[17]; [27]
  Plant response rating, Oat, Wild: 0
[17]; [28]
  Plant response rating, Oat, Wild: 0
[18]
  Plant response rating, Barnyardgrass (0 to 100 scale, 0 is no effect, 100 is complete control): 15
[19]; [29]
  Plant response rating, Horseweed: 0
[19]; 125 g ai/ha, 0 to 100 scale
  Plant response rating, Horseweed: 60
[20]; [27]
  Plant response rating, Foxtail, Giant: 80
[20]; [28]
  Plant response rating, Foxtail, Giant: 100
[21]; [29]
  Plant response rating, Corn: 0
[21]; 125 g ai/ha, 0 to 100 scale
  Plant response rating, Corn: 0
[22]; [29]
  Plant response rating, Pigweed, Palmer: 0
[22]; 125 g ai/ha, 0 to 100 scale
  Plant response rating, Pigweed, Palmer: 30
[23]
  Plant response rating, Ducksalad (0 to 100 scale, 0 is no effect, 100 is complete control): 50
[24]; [27]
  Plant response rating, Goosegrass: 30
[24]; [28]
  Plant response rating, Goosegrass: 90
[25]; [29]
  Plant response rating, Ragweed: 0
[25]; 125 g ai/ha, 0 to 100 scale
  Plant response rating, Ragweed: 40
[26]; [29]
  Plant response rating, Ryegrass, Italian: 0
[26]; 125 g ai/ha, 0 to 100 scale
  Plant response rating, Ryegrass, Italian: 0

## Cc1cc(C)c(N(COC(=O)C(C)(C)C)S(=O)(=O)C(F)(F)F)cc1C1=NOC(C(C)C)C1 (centres unmarked) [Compound 383]
[1]; 31 g ai/ha, postemergence
  Blackgrass plant response rating: 0
[1]; 125 g ai/ha, 10 days
  Plant response rating, Blackgrass: 50
[2]; [27]
  Plant response rating, Ryegrass, Italian: 0
[2]; [28]
  Plant response rating, Ryegrass, Italian: 40
[3]; [30]
  Wheat plant response rating: 0
[3]; [31]
  Plant response rating, Wheat: 70
[4]
  Plant response rating, Rice (0 to 100 scale, 0 is no effect, 100 is complete control): 10
[5]; [27]
  Plant response rating, Ragweed: 0
[5]; [28]
  Plant response rating, Ragweed: 0
[6]; [30]
  Soybean plant response rating: 30
[6]; [31]
  Plant response rating, Soybean: 50
[7]; [27]
  Plant response rating, Kochia: 0
[7]; [28]
  Plant response rating, Kochia: 0
[8]; [27]
  Plant response rating, Pigweed, Palmer: 0
[8]; [28]
  Plant response rating, Pigweed, Palmer: 0
[9]; [27]
  Plant response rating, Corn: 0
[9]; [28]
  Plant response rating, Corn: 0
[10]; [27]
  Plant response rating, Wheat: 20
[10]; [28]
  Plant response rating, Wheat: 20
[11]; [27]
  Plant response rating, Soybean: 0
[11]; [28]
  Plant response rating, Soybean: 0
[12]; [30]
  Galium plant response rating: 0
[12]; [31]
  Plant response rating, Galium: 60
[13]; [30]
  Foxtail, Giant plant response rating: 0
[13]; [31]
  Plant response rating, Foxtail, Giant: 60
[14]; [30]
  Goosegrass plant response rating: 0
[14]; [31]
  Plant response rating, Goosegrass: 20
[15]; [30]
  Oat, Wild plant response rating: 0
[15]; [31]
  Plant response rating, Oat, Wild: 10
[16]; [30]
  Kochia plant response rating: 20
[16]; [31]
  Plant response rating, Kochia: 20
[17]; [27]
  Plant response rating, Oat, Wild: 0
[17]; [28]
  Plant response rating, Oat, Wild: 30
[18]
  Plant response rating, Barnyardgrass (0 to 100 scale, 0 is no effect, 100 is complete control): 98
[19]; [30]
  Horseweed plant response rating: 0
[19]; [31]
  Plant response rating, Horseweed: 30
[20]; [27]
  Plant response rating, Foxtail, Giant: 0
[20]; [28]
  Plant response rating, Foxtail, Giant: 20
[21]; [30]
  Corn plant response rating: 0
[21]; [31]
  Plant response rating, Corn: 0
[22]; [30]
  Pigweed, Palmer plant response rating: 0
[22]; [31]
  Plant response rating, Pigweed, Palmer: 10
[23]
  Plant response rating, Ducksalad (0 to 100 scale, 0 is no effect, 100 is complete control): 25
[24]; [27]
  Plant response rating, Goosegrass: 0
[24]; [28]
  Plant response rating, Goosegrass: 80
[25]; [30]
  Ragweed plant response rating: 30
[25]; [31]
  Plant response rating, Ragweed: 40
[26]; [30]
  Ryegrass, Italian plant response rating: 0
[26]; [31]
  Plant response rating, Ryegrass, Italian: 0
